# In patent publication US4950686A, “Anti-mycoplasma agent” (Shionogi & Co., Ltd., priority 1986, dated 1990):
# Structures can show the parent of a compound that is named as a salt. Where two headings read alike, the source gives them in different places.
# Tests used:
# [1] = test system: Mycoplasma gallisepticum S6 (standard strain); test: Mycoplasma gallisepticum air-sac infection method in chicken, strain S6; type: in vivo, Mycoplasma gallisepticum; SPF chicken (white leghorn)
# Procedure: (§1) (2) Test of Effectiveness Mycoplasma gallisepticum air-sac infection method
# (§2) Inoculation: To the right air-sac of 9 days old SPF chicken (a white leghorn) which has abstained from water and feed one day before is inoculated 0.20-0.25 ml/chicken of fresh mycoplasma culture incubated for 24-48 hr and diluted with broth (usually 100 times). The concentration in Table 2 is shown in a unit of mg/ml.
# (§3) Medium: Chick PPLO broth supplemented with 15% equine serum (Eiken Kagaku Co., Ltd.)
# (§4) Administration: A compound of this invention dissolved or suspended in the following solution is orally and forcibly administered once by a cannula immediately after the infection.
# (§5) Anatomization and Isolation of Microorganism: The chickens are anatomized 5 days after the infection, and the right and left air sacs are investigated whether they are attacked with a disease or not. The change caused by the disease is represented in four degrees; -: no change, +: slight, ++: medium and +++: serious. Microorganism is isolated from the right and left air-sacs and the trachea by using a sterilized applicator.
# (§6) Judgement: Judgement is done through an index of an air-sac disease and an index of a microorganism-isolation.
# (§7) Index of an air-sac-disease: First, indexes in the right and left air-sacs are separately calculated according to the following formula;
# (§8) {degree of disease (0-3)×chickens}/anatomized chickens
# (§9) and the index is calculated by the following formula;
# (§10) (index of right air-sac)×1+(index of left air-sac)×2
# (§11) Index of a microorganism isolation:
# (§12) P: chickens from the right air-sac of which microorganism is isolated,
# (§13) Q: chickens from the trachea of which microorganism is isolated,
# (§14) R: chickens from the left air-sac of which microorganism is isolated, and
# (§15) S: chickens investigated.
# [2] = test system: Mycoplasma gallisepticum S6 (standard strain); test: Anti-mycoplasma activity in vitro (MIC, broth dilution), strain S6; type: cell-based; conditions: Mg S6, 37° C., 7 days
# Procedure: (§16) (1) Anti-mycoplasma activity test in vitro
# (§17) MIC values of each of Tropolones were measured on the following strains according to the following method.
# (§18) (a) Mycoplasma gallisepticum
# (§19) Medium: Chick PPLO broth supplemented with 20% equine serum (Eiken Kagaku Co., Ltd.)
# (§20) Method: Broth dilution method
# (§21) Inoculum: Culture incubated at 37° C. for 24-48 hr which is diluted with broth to 10^6 CCU/ml immediately before the use.
# (§22) To 1.6 ml of the broth is added 0.2 ml of an agent which has been subjected to 2-fold dilution and then added 0.2 ml of inoculum, which is incubated at 37° C. for 7 days.
# [3] = test system: Mycoplasma hyopneumoniae ST-11 (standard strain); test: Anti-mycoplasma activity in vitro (MIC, broth dilution), strain ST-11; type: cell-based; conditions: Mh ST-11
# Procedure: as §16, §17
# (b) Mycoplasma hyopneumoniae
# Strain: ST-11 (standard strain)
# Medium: 850 ml of Hanks' solution supplemented with 0.5% lactoalbumin, 50 ml of 25% yeast, 100 ml of equine serum and 4-6 ml of 0.5% phenol red (pH 7.4-7.6)
# as §20
# Inoculum: Culture which is incubated for 3-4 days and diluted 10 times with the broth if color of the broth becomes yellow then. If it needs over 4 days until color of the broth becomes yellow, it is further subcultured. This is diluted 10 times with the broth to give inoculum.
# Assay is done in the same manner as in the above (a).
# [4] = test system: Mycoplasma gallisepticum MR-1 (wild strain, tylosin-resistant); test: Anti-mycoplasma activity in vitro (MIC, broth dilution), strain MR-1; type: cell-based; conditions: Mg MR-1, 37° C., 7 days
# Procedure: as §16, §17, §18
# MR-1 (wild strain, tylosin-resistant)
# as §19, §20, §21, §22
# [5] = test system: Mycoplasma gallisepticum T-7-T (wild strain, tylosin-resistant); test: Anti-mycoplasma activity in vitro (MIC, broth dilution), strain T-7-T; type: cell-based; conditions: Mg T-7-T, 37° C., 7 days
# Procedure: as §16, §17, §18
# (§23) T-7-T (wild strain, tylosin-resistant)
# as §19, §20, §21, §22
# [6] = test system: Mycoplasma gallisepticum T-7-T (wild strain, tylosin-resistant); test: Mycoplasma gallisepticum air-sac infection method in chicken, strain T-7-T;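 on Index of Isolation: index = (P×1 + Q×2 + R×3)/S with range 0 to 6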; type: in vivo, Mycoplasma gallisepticum; SPF chicken (white leghorn); conditions: 100 mg/kg × once oral, 10 mg/ml sol. b; for Change of air-sac, left: + (chickens) / Change of air-sac, left: ++ (chickens) / Change of air-sac, left: +++ (chickens) / Change of air-sac, left: - (chickens) / Change of air-sac, right: + (chickens) / Change of air-sac, right: ++ (chickens) / Change of air-sac, right: +++ (chickens) / Change of air-sac, right: - (chickens) / Isolation, L (left air-sac) / Isolation, R (right air-sac) / Isolation, T (trachea) / Mycoplasma Isolated Chickens: inoculum 10^2; for Index of Isolation: inoculum 10^2, range 0-6.0; for Index of Disease: inoculum 10^2, range 0-9.0
# Procedure: as §1, §23, §2, §3, §4, §5, §6, §7, §8, §9, §10, §11, §12, §13, §14, §15
# [7] = 200 mg/kg × once oral, 20 mg/ml sol. b, inoculum 1.18 × 10^6
# [8] = 100 mg/kg × once oral, 10 mg/ml sol. b, inoculum 1.2 × 10^6
# [9] = 100 mg/kg × once oral, 10 mg/ml sol. b, inoculum 1.2 × 10^6, range 0-6.0
# [10] = 100 mg/kg × once oral, 10 mg/ml sol. b, inoculum 1.2 × 10^6, range 0-9.0
# [11] = Mycoplasmoides gallisepticum, 168 h, read-out: MIC
# [12] = Mesomycoplasma hyopneumoniae, read-out: MIC
# [13] = 100 mg/kg × once oral, 10 mg/ml sol. b, inoculum 7.7 × 10^5
# [14] = 100 mg/kg × once oral, 10 mg/ml sol. b, inoculum 7.7 × 10^5, range 0-6.0
# [15] = 100 mg/kg × once oral, 10 mg/ml sol. b, inoculum 7.7 × 10^5, range 0-9.0
smiles,measurement,setting,value
"O=c1cccccc1O [Compound 12, Tropolone L-arginine salt]","Change of air-sac, left: + (chickens)",[1]; [7],0
same,"Change of air-sac, left: ++ (chickens)",[1]; [7],0
same,"Change of air-sac, left: +++ (chickens)",[1]; [7],0
same,"Change of air-sac, left: - (chickens)",[1]; [7],5
same,"Change of air-sac, right: + (chickens)",[1]; [7],1
same,"Change of air-sac, right: ++ (chickens)",[1]; [7],0
same,"Change of air-sac, right: +++ (chickens)",[1]; [7],0
same,"Change of air-sac, right: - (chickens)",[1]; [7],4
same,"Isolation, L (left air-sac)",[1]; [7],0
same,"Isolation, R (right air-sac)",[1]; [7],2
same,"Isolation, T (trachea)",[1]; [7],1
same,Mycoplasma Isolated Chickens,[1]; [7],2
same,Index of Isolation,"[1]; 200 mg/kg × once oral, 20 mg/ml sol. b, inoculum 1.18 × 10^6, range 0-6.0",0.8
same,Index of Disease,"[1]; 200 mg/kg × once oral, 20 mg/ml sol. b, inoculum 1.18 × 10^6, range 0-9.0",0.2
same,MIC,[2],3.13 mg/L
same,MIC,[3],1.56 mg/L
same,MIC,[4],3.13 mg/L
same,MIC,[5],3.13 mg/L
"CC(C)(C)C(=O)OCOc1cccccc1=O [Compound 19, O-(pivaloyloxymethyl)tropolone]","Change of air-sac, left: + (chickens)",[1]; [8],0
same,"Change of air-sac, left: ++ (chickens)",[1]; [8],0
same,"Change of air-sac, left: +++ (chickens)",[1]; [8],0
same,"Change of air-sac, left: - (chickens)",[1]; [8],8
same,"Change of air-sac, right: + (chickens)",[1]; [8],0
same,"Change of air-sac, right: ++ (chickens)",[1]; [8],0
same,"Change of air-sac, right: +++ (chickens)",[1]; [8],0
same,"Change of air-sac, right: - (chickens)",[1]; [8],8
same,"Isolation, L (left air-sac)",[1]; [8],1
same,"Isolation, R (right air-sac)",[1]; [8],1
same,"Isolation, T (trachea)",[1]; [8],2
same,Mycoplasma Isolated Chickens,[1]; [8],2
same,Index of Isolation,[1]; [9],1.01
same,Index of Disease,[1]; [10],0
same,MIC,[2]; [11],0.39 mg/L
same,MIC,[3]; [12],0.1 mg/L
same,"Change of air-sac, left: + (chickens)",[6],0
same,"Change of air-sac, left: ++ (chickens)",[6],0
same,"Change of air-sac, left: +++ (chickens)",[6],0
same,"Change of air-sac, left: - (chickens)",[6],8
same,"Change of air-sac, right: + (chickens)",[6],0
same,"Change of air-sac, right: ++ (chickens)",[6],0
same,"Change of air-sac, right: +++ (chickens)",[6],0
same,"Change of air-sac, right: - (chickens)",[6],8
same,"Isolation, L (left air-sac)",[6],2
same,"Isolation, R (right air-sac)",[6],1
same,"Isolation, T (trachea)",[6],5
same,Mycoplasma Isolated Chickens,[6],5
same,Index of Isolation,[6],2.00
same,Index of Disease,[6],0
same,MIC,[4]; [11],1.56 mg/L
same,MIC,[5]; [11],0.78 mg/L
"O=C1OC(Oc2cccccc2=O)c2ccccc21 (stereo not shown) [Compound 23, O-(1,3-Dihydro-3-oxo-1-isobenzofuranyl)tropolone]","Change of air-sac, left: + (chickens)",[1]; [8],0
same,"Change of air-sac, left: ++ (chickens)",[1]; [8],0
same,"Change of air-sac, left: +++ (chickens)",[1]; [8],0
same,"Change of air-sac, left: - (chickens)",[1]; [8],8
same,"Change of air-sac, right: + (chickens)",[1]; [8],0
same,"Change of air-sac, right: ++ (chickens)",[1]; [8],0
same,"Change of air-sac, right: +++ (chickens)",[1]; [8],0
same,"Change of air-sac, right: - (chickens)",[1]; [8],8
same,"Isolation, L (left air-sac)",[1]; [8],1
same,"Isolation, R (right air-sac)",[1]; [8],1
same,"Isolation, T (trachea)",[1]; [8],4
same,Mycoplasma Isolated Chickens,[1]; [8],4
same,Index of Isolation,[1]; [9],1.90
same,Index of Disease,[1]; [10],0
same,MIC,[2]; [11],0.39 mg/L
same,MIC,[3]; [12],0.39 mg/L
same,"Change of air-sac, left: + (chickens)",[6],0
same,"Change of air-sac, left: ++ (chickens)",[6],0
same,"Change of air-sac, left: +++ (chickens)",[6],0
same,"Change of air-sac, left: - (chickens)",[6],8
same,"Change of air-sac, right: + (chickens)",[6],0
same,"Change of air-sac, right: ++ (chickens)",[6],0
same,"Change of air-sac, right: +++ (chickens)",[6],0
same,"Change of air-sac, right: - (chickens)",[6],8
same,"Isolation, L (left air-sac)",[6],6
same,"Isolation, R (right air-sac)",[6],5
same,"Isolation, T (trachea)",[6],6
same,Mycoplasma Isolated Chickens,[6],6
same,Index of Isolation,[6],4.20
same,Index of Disease,[6],0
same,MIC,[4]; [11],0.78 mg/L
same,MIC,[5]; [11],0.78 mg/L
"Cc1oc(=O)oc1COc1cccccc1=O [Compound 25, O-{(2-Oxo-5-methyl-1,3-dioxol-4-yl)methyl}tropolone]","Change of air-sac, left: + (chickens)",[1]; [13],0
same,"Change of air-sac, left: ++ (chickens)",[1]; [13],0
same,"Change of air-sac, left: +++ (chickens)",[1]; [13],0
same,"Change of air-sac, left: - (chickens)",[1]; [13],8
same,"Change of air-sac, right: + (chickens)",[1]; [13],1
same,"Change of air-sac, right: ++ (chickens)",[1]; [13],0
same,"Change of air-sac, right: +++ (chickens)",[1]; [13],0
same,"Change of air-sac, right: - (chickens)",[1]; [13],7
same,"Isolation, L (left air-sac)",[1]; [13],6
same,"Isolation, R (right air-sac)",[1]; [13],5
same,"Isolation, T (trachea)",[1]; [13],7
same,Mycoplasma Isolated Chickens,[1]; [13],7
same,Index of Isolation,[1]; [14],4.38
same,Index of Disease,[1]; [15],0.13
same,MIC,[2]; [11],0.39 mg/L
same,MIC,[3]; [12],0.2 mg/L
same,MIC,[4]; [11],0.39 mg/L
same,MIC,[5]; [11],0.39 mg/L
"COc1ccccc(O)c1=O [Compound 26, 7-Methoxytropolone]","Change of air-sac, left: + (chickens)",[1]; [13],0
same,"Change of air-sac, left: ++ (chickens)",[1]; [13],0
same,"Change of air-sac, left: +++ (chickens)",[1]; [13],0
same,"Change of air-sac, left: - (chickens)",[1]; [13],8
same,"Change of air-sac, right: + (chickens)",[1]; [13],4
same,"Change of air-sac, right: ++ (chickens)",[1]; [13],2
same,"Change of air-sac, right: +++ (chickens)",[1]; [13],0
same,"Change of air-sac, right: - (chickens)",[1]; [13],2
same,"Isolation, L (left air-sac)",[1]; [13],8
same,"Isolation, R (right air-sac)",[1]; [13],5
same,"Isolation, T (trachea)",[1]; [13],8
same,Mycoplasma Isolated Chickens,[1]; [13],8
same,Index of Isolation,[1]; [14],4.88
same,Index of Disease,[1]; [15],1.00
same,MIC,[2]; [11],6.25 mg/L
same,MIC,[3]; [12],3.13 mg/L
same,MIC,[4]; [11],6.25 mg/L
same,MIC,[5]; [11],12.5 mg/L
